Results published in ChEMBL document CHEMBL3797024, “Exploring new chemical functionalities to improve aromatase inhibition of steroids” (Bioorg Med Chem, 2016).

Experiments:
[1] = target: T1, Aromatase (Homo sapiens, UniProt P11511); assay: Inhibition of human placental aromatase expressed in human MCF7 cells using [1beta-3H]-androstenedione as substrate assessed as tritiated H2O release at 10 uM after 1 hr by liquid scintillation counting method in presence of progesterone relative to control; format: cell-based
T1 sequence (P11511 whole entry): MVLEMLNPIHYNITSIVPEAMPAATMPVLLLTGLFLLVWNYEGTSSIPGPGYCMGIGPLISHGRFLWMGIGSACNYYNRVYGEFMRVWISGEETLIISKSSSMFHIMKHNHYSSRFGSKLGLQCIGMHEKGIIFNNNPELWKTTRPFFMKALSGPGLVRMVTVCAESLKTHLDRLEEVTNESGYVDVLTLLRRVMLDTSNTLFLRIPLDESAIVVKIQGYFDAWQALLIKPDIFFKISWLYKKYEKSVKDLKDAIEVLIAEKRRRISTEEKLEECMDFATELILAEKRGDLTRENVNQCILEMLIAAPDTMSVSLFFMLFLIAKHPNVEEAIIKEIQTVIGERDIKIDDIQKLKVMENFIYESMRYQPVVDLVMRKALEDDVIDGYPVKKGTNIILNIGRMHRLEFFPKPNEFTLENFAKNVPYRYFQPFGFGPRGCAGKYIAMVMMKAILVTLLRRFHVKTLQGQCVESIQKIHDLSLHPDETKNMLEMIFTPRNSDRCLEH

[2] = target: T1, Aromatase; assay: Inhibition of aromatase in human placental microsomes using [1beta-3H]-androstenedione as substrate assessed as tritiated H2O release at 2 uM after 15 mins by liquid scintillation counting method relative to control; design: species or system Placenta; details: 0.25 h
[3] = target: T1, Aromatase; assay: Inhibition of aromatase in human placental microsomes using [1beta-3H]-androstenedione as substrate assessed as tritiated H2O release after 15 mins by liquid scintillation counting method; design: species or system Placenta
[4] = target: T1, Aromatase; assay: Inhibition of human placental aromatase expressed in human MCF7 cells using [1beta-3H]-androstenedione as substrate at 1 uM after 1 hr by liquid scintillation counting method in presence of progesterone relative to control; format: cell-based
[5] = target: T1, Aromatase; assay: Inhibition of aromatase in human placental microsomes using [1beta-3H]-androstenedione as substrate assessed as tritiated H2O release at 0.5 uM after 15 mins by liquid scintillation counting method relative to control; design: species or system Placenta; details: 0.25 h

Compound	inhibition at 10 µM [1] [%]	inhibition at 2 µM [2] [%]	other results
C[C@]12CCC=C[C@@H]1CC[C@@H]1[C@@H]2CC[C@]2(C)C(=O)CC[C@@H]12	56.9	–	–
C[C@]12CC[C@H]3O[C@H]3[C@@H]1CC[C@@H]1[C@@H]2CC[C@]2(C)C(=O)CC[C@@H]12	80.4	–	–
C[C@]12CCCC=C1CC[C@@H]1[C@@H]2CC[C@]2(C)C(=O)CC[C@@H]12	62.6	–	–
C[C@]12CC[C@H]3[C@@H](CC[C@@]45O[C@@H]4CCC[C@]35C)[C@@H]1CCC2=O	53.2	–	–
C=CC[C@@H]1CC2=CC(=O)C=C[C@]2(C)[C@H]2CC[C@]3(C)C(=O)CC[C@H]3[C@H]12	94.2	94.5	–
C[C@]12C=CC(=O)C=C1C[C@@H](CC1CO1)[C@@H]1[C@@H]2CC[C@]2(C)C(=O)CC[C@@H]12 (some centres undefined)	72.3	76.3	–
C[C@]12CC[C@H]3C[C@H]3[C@@H]1CC[C@@H]1[C@@H]2CC[C@]2(C)C(=O)CC[C@@H]12	89.3	95.3	IC50 [3]: 110 nM
C[C@]12CCC(=O)C=C1CC[C@@H]1C2=CC[C@]2(C)C(=O)CC[C@@H]12	96.4	95.2	–
C[C@]12CC[C@H]3[C@@H](CC[C@]45O[C@H]4CCC[C@]35C)[C@@H]1CCC2=O	64.8	85.5	IC50 [3]: 530 nM
C[C@]12CCC3=C(OCCO3)C1=CC[C@@H]1[C@@H]2CC[C@]2(C)C(=O)CC[C@@H]12	–	55.9	–
C[C@]12CCC(=O)C(O)=C1CC[C@@H]1[C@@H]2CC[C@]2(C)C(=O)CC[C@@H]12 [FORMESTANE]	–	–	inhibition at 1 µM [4]: 96.1%; inhibition at 0.5 µM [5]: 99.2%
